{
  "source": "patent US11259522B2",
  "about": "“Control of resistant pests” (priority 2017, dated 2022)",
  "key": {"[1]": {"system": "Halotydeus destructor resistant population (synthetic pyrethroid resistance)", "test": "Coated plastic vial bioassay, redlegged earth mite, resistant population", "type": "in vivo", "protocol": "The test compositions included 0.1% Tween 20 non-ionic surfactant to aid the spread of insecticides when coating plastic vials. This concentration of Tween 20 has been previously shown to have no toxic effect on H. destructor. For each insecticide concentration tested, 3, 10, 30, 100, 300, 1000, 3000 and 10000 mg a.i./L (ppm), approximately 10 mL of solution was poured into a 15 mL plastic vial and swirled to ensure a complete coating, with excess liquid removed. Eight vials were coated per concentration and were left to dry overnight. Control vials were treated in the same way but with water used in place of test composition.\nEight susceptible H. destructor mites were then placed into each vial along with a leaf of common vetch (Vicia sativa). The leaf was added to provide food and increase humidity. Vials were then sealed with a lid and placed at 18° C. After 4, 6, 8 and 24 hours of exposure, the mites were scored as alive (moving freely), incapacitated (inhibited movement), or dead (no movement over a 5 second period).\nThe resistant population of H. destructor was collected from a lucerne paddock in the Upper South-East district of South Australia, where resistance to synthetic pyrethroids was confirmed in late 2016.\nThe data produced in the assays were assessed for concentrations that caused 50, 90 and 99% mortality (lethal concentration, LC), together with 95% confidence intervals (CIs) and were estimated from observations of mortality after 24 hours exposure using a binomial logistic regression (Robertson & Preisler, 1992, Pesticide Bioassays with Arthropods. CRC: Boca Raton; Venables & Ripley, 2002, Modern Applied Statistics with S. Springer: New York). Population differences were tested by comparing the change in model deviance with and without the population factor (different regression intercepts for each population). Differences in regression slopes between populations were tested by comparing the change in model deviance with and without the population×dose interaction term. The resistance ratio of the insecticide-resistant population was estimated as the ratio of its LC50 to that of the susceptible population. All analyses were performed using R 3.3. (R Core Team 2017, R: A language and environment for statistical computing. R Foundation for Statistical Computing, Vienna, Austria. http://www.R-project.org)."}, "[2]": {"system": "M. persicae (green peach aphid) population resistant to carbamates and synthetic pyrethroids", "test": "Leaf dip bioassay, green peach aphid, resistant population", "type": "in vivo, Myzus persicae", "conditions": "96 hours exposure; for LC50: Myzus persicae, foliar", "protocol": "Each colony was maintained separately on bok choi plants ([…]) within an exclusion cage in a constant temperature room at 24° C. with a photoperiod of 16:8 LD.\nLaboratory bioassays were used to determine the efficacy of flavesone against M. persicae following the leaf dip method described in Moores et al. (1994, Pesticide Biochemistry and Physiology, 49, 114-120). A pilot study was first conducted which confirmed that the leaf dip method was appropriate to elicit a clear dose response for Flavocide 500EW against M. persicae, and to determine the appropriate rate range and timing of mortality assessments (scored at 24, 48, 72 & 96 hours) (data not shown).\nBioassays were then conducted to assess the efficacy of flavesone against a susceptible and resistant population of M. persicae, and to calculate LC values. The efficacy of a conventional insecticide, pirimicarb, was tested for comparison. Nine concentrations of flavesone ranging from 1×10^−3 to 10 times the proposed field rate (Table 15), and six concentrations of pirimicarb were serially diluted and tested, along with a water control, against the susceptible and resistant aphid populations. Leaf discs (25 mm diameter) cut from bok choi leaves were submerged for 1 second in the insecticide solutions, or in the water control, and placed adaxial side up on 10 g/L agar in 35 mm petri dishes. Six replicate leaf discs were prepared per treatment. Once leaves were air-dry, eight M. persicae nymphs were transferred to each insecticide-dipped leaf disc using a fine-haired paintbrush.\nAfter aphid introduction, each petri dish was inverted onto a lid containing a 25 mm diameter filter paper to control humidity. All petri dishes were then placed into an incubator held at 18° C.±2° C. with a photoperiod of 16:8 LD cycle. At 48 & 96 hours, aphids were scored as alive (vibrant and moving freely), dead (not moving over a 5 second period), or incapacitated (inhibited movement).\nDose-response curves were generated by plotting percentage mortality against log concentration. Mortality data was analysed using a logistic regression model with random effects. Logistic regression is suited for the analysis of binary response data (i.e. dead/alive) with the random effect component of the model controlling for the non-independence of mortality scores within replicates. […] Population differences were tested by comparing the change in model deviance with and without the population factor (different regression intercepts for each population). Differences in regression slopes between populations were tested by comparing the change in model deviance with and without the population×dose interaction term."}, "[3]": {"system": "Tribolium castaneum susceptible strain QTC4", "test": "Grain protectant bioassay on treated wheat, T. castaneum susceptible", "type": "in vivo", "conditions": "for Progeny reduction (%): vs untreated control"}, "[4]": {"system": "Sitophilus oryzae susceptible strain LS2", "test": "Grain protectant bioassay on treated wheat, S. oryzae susceptible", "type": "in vivo", "conditions": "for Progeny reduction (%): vs untreated control"}, "[5]": {"system": "Aedes aegypti PRS Puerto Rican strain (synthetic pyrethroid resistant) L3 larvae", "test": "Mosquito larval dose response assay, PRS strain", "conditions": "read-out: Lethal Concentration (LC50) PRS Strain"}, "[6]": {"system": "Rhyzopertha dominica strain QRD1440 (resistant to OP protectants and pyrethroids)", "test": "Grain protectant bioassay on treated wheat, resistant lesser grain borer", "conditions": "for Live adult progeny: mean ± SE; for Progeny reduction (%): vs untreated control"}, "[7]": {"conditions": "Resistant population, 24 hours exposure"}, "[8]": {"conditions": "Example 6, QRD1440, 25 ppm on wheat, replicates A, B, C"}, "[9]": {"conditions": "Example 6, QRD1440, 50 ppm on wheat, replicates A, B, C"}, "[10]": {"conditions": "Example 6, QRD1440, 75 ppm on wheat, replicates A, B, C"}, "[11]": {"conditions": "Example 7, QRD1440, 60 ppm on wheat, replicates A, B, C"}, "[12]": {"conditions": "Rhyzopertha dominica, in Triticum aestivum, 336 h, read-out: Adult mortality (%)"}},
  "note": "Several values for one entry are separate records, joined by “and”; a condition that tells them apart may be missing. Equal entries are not always repeated. Where two headings read alike, the source gives them in different places.",
  "data": [
    {"smiles": "CC(C)C(=O)C1C(=O)C(C)(C)C(=O)C(C)(C)C1=O", "note": "[Flavesone, 1-isobutyroyl-3,3,5,5-tetramethylcyclohexane-2,4,6-trione]", "values": [
      {"measurement": "LC50", "setting": "[1]; Halotydeus destructor, 24 h, Resistant population, 24 hours exposure, read-out: LC50 (mg a.i./L)", "result": 34.2, "unit": "µg/mL"},
      {"measurement": "LC50 (mg a.i./L)", "setting": "[1]; [7]", "result": 34.22, "unit": "mg a.i./L"},
      {"measurement": "LC90 (mg a.i./L)", "setting": "[1]; [7]", "result": 117.89, "unit": "mg a.i./L"},
      {"measurement": "LC99 (mg a.i./L)", "setting": "[1]; [7]", "result": 454.76, "unit": "mg a.i./L"},
      {"measurement": "concentration causing 50% mortality", "setting": "[1]; both susceptible and insecticide-resistant populations, 24 hours", "result": "34−40 mg a.i./L"},
      {"measurement": "LC50", "setting": "[2]; Resistant population, read-out: LC50 (mg a.i./L)", "result": 3150, "unit": "µg/mL"},
      {"measurement": "LC50", "setting": "[2]; susceptible and resistant populations, read-out: LC50", "result": "2730 to 3150", "unit": "µg/mL"},
      {"measurement": "LC90 (mg a.i./L)", "setting": "[2]; Resistant population", "result": "7,929 mg a.i./L"},
      {"measurement": "LC99 (mg a.i./L)", "setting": "[2]; Resistant population", "result": "21,708 mg a.i./L"},
      {"measurement": "Live adult progeny", "setting": "[3]; 25 mg/kg, mean ± SE", "result": "120.0 ± 16.1"},
      {"measurement": "Live adult progeny", "setting": "[3]; 60 mg/kg, mean ± SE", "result": "65.0 ± 3.2"},
      {"measurement": "Progeny reduction (%)", "setting": "[3]; 60 mg/kg", "result": 45.2, "unit": "%"},
      {"measurement": "Progeny reduction (%)", "setting": "[3]; 60 mg/kg, listed as flavesone", "result": 45, "unit": "%"},
      {"measurement": "mortality at 25 mg/kg", "setting": "[3]; Tribolium castaneum, 336 h, 25 mg/kg, 2 weeks, mean ± SE, read-out: Adult mortality (%)", "result": 0, "unit": "%"},
      {"measurement": "mortality at 60 mg/kg", "setting": "[3]; Tribolium castaneum, 336 h, 60 mg/kg, 2 weeks, mean ± SE, read-out: Adult mortality (%)", "result": 0, "unit": "%"},
      {"measurement": "Live adult progeny", "setting": "[4]; 25 mg/kg, mean ± SE", "result": "735.3 ± 60.6"},
      {"measurement": "Live adult progeny", "setting": "[4]; 60 mg/kg, mean ± SE", "result": "355.3 ± 64.7"},
      {"measurement": "Progeny reduction (%)", "setting": "[4]; 60 mg/kg", "result": 50.3, "unit": "%"},
      {"measurement": "Progeny reduction (%)", "setting": "[4]; 60 mg/kg, listed as flavesone", "result": 50, "unit": "%"},
      {"measurement": "mortality at 25 mg/kg", "setting": "[4]; Sitophilus oryzae, 336 h, 25 mg/kg, 2 weeks, mean ± SE, read-out: Adult mortality (%)", "result": "1.3 ± 0.7", "unit": "%"},
      {"measurement": "mortality at 60 mg/kg", "setting": "[4]; Sitophilus oryzae, 336 h, 60 mg/kg, 2 weeks, mean ± SE, read-out: Adult mortality (%)", "result": "4 ± 1.2", "unit": "%"},
      {"measurement": "LC50", "setting": "[5]; 24 h", "result": 40.9, "unit": "µg/mL"},
      {"measurement": "LC50", "setting": "[5]; 48 h", "result": 40.5, "unit": "µg/mL"},
      {"measurement": "LC50", "setting": "[5]; 72 h", "result": 39.7, "unit": "µg/mL"},
      {"measurement": "F1 Progeny count No. dead/total", "setting": "[6]; Example 5, QRD1440, 25 ppm on wheat, further 6 weeks, replicates A, B, C", "result": "0/37 and 0/62 and 0/90"},
      {"measurement": "14 Day adult mortality No. dead (total)", "setting": "[6]; Example 5, QRD1440, 25 ppm on wheat, replicates A, B, C", "result": "19/50 and 11/50 and 14/50"},
      {"measurement": "14 day Adult Mortality No. dead/total", "setting": "[6]; [8]", "result": "22/50 and 21/50 and 30/50"},
      {"measurement": "F1 Progeny count No. dead/total", "setting": "[6]; [8]", "result": "0/20 (2×) and 0/5"},
      {"measurement": "14 day Adult Mortality No. dead/total", "setting": "[6]; [9]", "result": "47/50 (2×) and 49/50"},
      {"measurement": "F1 Progeny count No. dead/total", "setting": "[6]; [9]", "result": "0/0"},
      {"measurement": "14 day Adult Mortality No. dead/total", "setting": "[6]; [10]", "result": "50/50"},
      {"measurement": "F1 Progeny count No. dead/total", "setting": "[6]; [10]", "result": "0/0"},
      {"measurement": "14 day Adult Mortality No. dead/total", "setting": "[6]; [11]", "result": "50/50"},
      {"measurement": "F1 Progeny count No. dead/total", "setting": "[6]; [11]", "result": "0/0"},
      {"measurement": "Live adult progeny", "setting": "[6]; QRD1440, 25 mg/kg", "result": "23.7 ± 9.0"},
      {"measurement": "Progeny reduction (%)", "setting": "[6]; QRD1440, 25 mg/kg", "result": 88.8, "unit": "%"},
      {"measurement": "Progeny reduction (%)", "setting": "[6]; QRD1440, 25 mg/kg, listed as flavesone", "result": 88, "unit": "%"},
      {"measurement": "Live adult progeny", "setting": "[6]; QRD1440, 60 mg/kg", "result": "0.0 ± 0.0"},
      {"measurement": "Progeny reduction (%)", "setting": "[6]; QRD1440, 60 mg/kg", "result": 100, "unit": "%"},
      {"measurement": "mortality at 25 mg/kg", "setting": "[6]; [12]", "result": "56.7 ± 4.1", "unit": "%"},
      {"measurement": "mortality at 60 mg/kg", "setting": "[6]; [12]", "result": 100, "unit": "%"}
    ]}
  ]
}
